Assays:
Experiment in all cases: Caspase Catalytic Activity Assay
Details in all cases: pH 7.4
Caspase-3 = biological target: T1, Caspase-3 (Homo sapiens, UniProt P42574)
T1 sequence (P42574 whole entry): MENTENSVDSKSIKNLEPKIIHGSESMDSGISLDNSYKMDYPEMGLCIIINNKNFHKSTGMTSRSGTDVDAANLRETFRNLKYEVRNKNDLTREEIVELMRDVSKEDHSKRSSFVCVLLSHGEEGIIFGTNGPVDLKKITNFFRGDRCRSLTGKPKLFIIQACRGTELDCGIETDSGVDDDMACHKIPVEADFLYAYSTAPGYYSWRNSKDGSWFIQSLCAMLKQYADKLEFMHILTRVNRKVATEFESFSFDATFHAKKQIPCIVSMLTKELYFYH
Procedure: (§1) ECB (Enzo Caspase Buffer): 50 mM HEPES (pH 7.4), 100 mM NaCl, 0.5% Tween 20, 10 mM DTT, and 10% glycerol; SCB (Standard Caspase Buffer): 20 mM PIPES (pH 7.5), 100 mM NaCl, 1 mM EDTA, 10 mM DTT, and 10% sucrose; HCB (High-Citrate Buffer): 50 mM Tris-HCl (pH 7.5), 1 M sodium citrate, 10 mM DTT, and 10% sucrose. Activity was measured as the change in luminescent signal for at least 30 min.

Caspase-1 = biological target: T2, Caspase-1 (Homo sapiens, UniProt P29466)
T2 sequence (P29466 whole entry): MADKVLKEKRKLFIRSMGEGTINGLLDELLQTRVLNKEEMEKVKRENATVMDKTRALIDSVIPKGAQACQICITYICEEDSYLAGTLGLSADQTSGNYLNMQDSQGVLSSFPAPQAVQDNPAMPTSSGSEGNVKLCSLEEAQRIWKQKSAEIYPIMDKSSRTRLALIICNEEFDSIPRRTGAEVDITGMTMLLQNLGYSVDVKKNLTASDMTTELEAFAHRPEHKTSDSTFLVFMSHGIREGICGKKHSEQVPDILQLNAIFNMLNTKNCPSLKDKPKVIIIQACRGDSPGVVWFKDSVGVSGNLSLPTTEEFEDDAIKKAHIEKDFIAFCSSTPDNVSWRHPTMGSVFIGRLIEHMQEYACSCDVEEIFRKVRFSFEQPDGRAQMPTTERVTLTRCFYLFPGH
Procedure: as §1

Caspase-5 = biological target: T3, Caspase-5 (Homo sapiens, UniProt P51878)
T3 sequence (P51878 whole entry): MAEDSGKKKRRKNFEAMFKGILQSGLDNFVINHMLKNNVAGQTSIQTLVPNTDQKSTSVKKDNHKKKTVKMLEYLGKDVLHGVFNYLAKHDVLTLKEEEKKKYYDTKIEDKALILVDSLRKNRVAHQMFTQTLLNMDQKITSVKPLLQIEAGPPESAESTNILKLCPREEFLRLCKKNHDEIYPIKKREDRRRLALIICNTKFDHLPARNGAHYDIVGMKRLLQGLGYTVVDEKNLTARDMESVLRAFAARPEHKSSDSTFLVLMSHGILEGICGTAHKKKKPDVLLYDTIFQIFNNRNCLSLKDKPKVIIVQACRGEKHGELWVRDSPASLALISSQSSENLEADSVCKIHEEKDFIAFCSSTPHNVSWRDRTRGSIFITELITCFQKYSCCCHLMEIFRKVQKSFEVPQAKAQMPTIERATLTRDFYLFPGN
Procedure: as §1

Caspase-4 = biological target: T4, Caspase-4 (Homo sapiens, UniProt P49662)
T4 sequence (P49662 whole entry): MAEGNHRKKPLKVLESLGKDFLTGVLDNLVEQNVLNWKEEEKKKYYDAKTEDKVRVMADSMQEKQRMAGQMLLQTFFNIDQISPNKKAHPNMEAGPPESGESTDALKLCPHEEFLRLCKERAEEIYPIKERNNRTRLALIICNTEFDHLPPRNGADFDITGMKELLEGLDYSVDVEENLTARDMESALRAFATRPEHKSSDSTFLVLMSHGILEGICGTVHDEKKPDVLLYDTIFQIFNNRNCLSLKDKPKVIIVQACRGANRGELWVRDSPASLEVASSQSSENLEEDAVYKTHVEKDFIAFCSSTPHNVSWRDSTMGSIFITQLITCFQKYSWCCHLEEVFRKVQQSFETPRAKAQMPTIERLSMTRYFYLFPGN
Procedure: as §1

Caspase-9 = biological target: T5, Caspase-9 (Homo sapiens, UniProt P55211)
T5 sequence (P55211 whole entry): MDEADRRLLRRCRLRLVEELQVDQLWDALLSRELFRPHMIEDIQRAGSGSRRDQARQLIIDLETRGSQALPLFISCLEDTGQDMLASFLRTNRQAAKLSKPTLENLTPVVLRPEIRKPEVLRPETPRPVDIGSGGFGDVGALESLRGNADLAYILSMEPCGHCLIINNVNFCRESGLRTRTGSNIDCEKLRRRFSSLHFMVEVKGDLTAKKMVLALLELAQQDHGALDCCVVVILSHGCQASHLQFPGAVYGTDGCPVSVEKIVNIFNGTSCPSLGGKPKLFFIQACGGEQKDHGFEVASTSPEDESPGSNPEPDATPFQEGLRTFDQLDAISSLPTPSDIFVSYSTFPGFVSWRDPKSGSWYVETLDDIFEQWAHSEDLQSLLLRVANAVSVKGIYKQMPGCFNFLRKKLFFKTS
Procedure: as §1

Row | SMILES | IC50 (Caspase-3) | IC50 (Caspase-1) | IC50 (Caspase-5) | IC50 (Caspase-4) | IC50 (Caspase-9)
1 | CC(C(=O)O)c1ccc(N2Cc3ccccc3C2=O)cc1 (stereo not drawn) [(+)-2-(4-(1-oxoisoindolin-2-yl)phenyl)propanoic acid] | 1.4 µM | 3.6 µM | 0.59 µM | 0.57 µM | 0.3 µM
2 | O=C(O)CCC(=O)c1ccc(-c2ccccc2)cc1 [3-(4-biphenylylcarbonyl)propionic acid] | 1.2 µM | 4.4 µM | 0.87 µM | 0.57 µM | 0.76 µM
3 | CC(C(=O)O)c1ccc(C(=O)c2ccccc2)s1 (stereo not given) [Tiaprofenic acid] | 0.81 µM | 1.6 µM | 0.47 µM | 0.38 µM | 2.2 µM
4 | O=C(O)Cc1ccc(-c2ccccc2)cc1 [Felbinac] | 14 µM | 35 µM | 2.6 µM | 2 µM | 1.8 µM
5 | COc1ccc2cc([C@H](C)C(=O)O)ccc2c1 [(2S)-2-(6-methoxynaphthalen-2-yl)propanoic acid] | 55 µM | > 66 µM | 11 µM | 15 µM | 10 µM
6 | O=C(c1ccccc1)c1ccc2n1CCC2C(=O)O (stereo not given) [Toradol] | 2.5 µM | 18 µM | 1 µM | 0.86 µM | 0.85 µM
7 | CC(C(=O)O)c1cccc(C(=O)c2ccccc2)c1 (stereo not given) [2-(3-benzoylphenyl)propanoic acid] | 50 µM | > 66 µM | 10 µM | 10 µM | 10 µM

Reference: BindingDB's records for doi:10.1016/j.chembiol.2017.02.003 (University of Colorado, 2017)
